What was measured:
[1] = biological target: Tyrosine-protein kinase Lyn (Homo sapiens) (UniProt P07948); details: Compound concentration 1000.0 nM
[2] = biological target: Serine/threonine-protein kinase Nek9 (Homo sapiens) (UniProt Q8TD19); details: Compound concentration 1000.0 nM
[3] = biological target: Mitogen-activated protein kinase 9 (Homo sapiens) (UniProt P45984); details: Compound concentration 1000.0 nM
[4] = biological target: Muscarinic acetylcholine receptor M1 (Homo sapiens) (UniProt P11229); details: Compound concentration 10.0 uM
[5] = biological target: Cyclin-dependent kinase-like 5 (Homo sapiens) (UniProt O76039); details: Compound concentration 1000.0 nM
[6] = biological target: Serine/threonine-protein kinase PLK4 (Homo sapiens) (UniProt O00444); details: Compound concentration 1000.0 nM
[7] = biological target: Casein kinase II subunit alpha' (Homo sapiens) (UniProt P19784); details: Compound concentration 1000.0 nM
[8] = biological target: Serine/threonine-protein kinase 32B (Homo sapiens) (UniProt Q9NY57); details: Compound concentration 1000.0 nM
[9] = test system: Tyrosine-protein kinase ABL1 (Homo sapiens), P00519 [H396P]; details: Compound concentration 1000.0 nM
[10] = biological target: Tyrosine-protein kinase Tec (Homo sapiens) (UniProt P42680); details: Compound concentration 1000.0 nM
[11] = biological target: Leucine-rich repeat serine/threonine-protein kinase 2 (Homo sapiens) (UniProt Q5S007); details: Compound concentration 1000.0 nM
[12] = biological target: Ephrin type-A receptor 1 (Homo sapiens) (UniProt P21709); details: Compound concentration 1000.0 nM
[13] = biological target: Homeodomain-interacting protein kinase 1 (Homo sapiens) (UniProt Q86Z02); details: Compound concentration 1000.0 nM
[14] = test system: Tyrosine-protein kinase ABL1 (Homo sapiens), P00519 [T315I]; details: Compound concentration 1000.0 nM
[15] = biological target: Receptor tyrosine-protein kinase erbB-4 (Homo sapiens) (UniProt Q15303); details: Compound concentration 1000.0 nM
[16] = test system: Mast/stem cell growth factor receptor Kit (Homo sapiens), P10721 [V559D]; details: Compound concentration 1000.0 nM
[17] = biological target: Mitogen-activated protein kinase 14 (Homo sapiens) (UniProt Q16539); details: Compound concentration 1000.0 nM
[18] = biological target: Myosin-IIIb (Homo sapiens) (UniProt Q8WXR4); details: Compound concentration 1000.0 nM
[19] = biological target: Myotonin-protein kinase (Homo sapiens) (UniProt Q09013); details: Compound concentration 1000.0 nM
[20] = biological target: Dual specificity mitogen-activated protein kinase kinase 6 (Homo sapiens) (UniProt P52564); details: Compound concentration 1000.0 nM
[21] = biological target: Mitogen-activated protein kinase kinase kinase 11 (Homo sapiens) (UniProt Q16584); details: Compound concentration 1000.0 nM
[22] = biological target: Homeodomain-interacting protein kinase 2 (Homo sapiens) (UniProt Q9H2X6); details: Compound concentration 1000.0 nM
[23] = biological target: Calcium/calmodulin-dependent protein kinase kinase 2 (Homo sapiens) (UniProt Q96RR4); details: Compound concentration 1000.0 nM
[24] = biological target: Ribosomal protein S6 kinase alpha-3 (Homo sapiens) (UniProt P51812); details: Compound concentration 1000.0 nM
[25] = biological target: Serine/threonine-protein kinase MRCK beta (Homo sapiens) (UniProt Q9Y5S2); details: Compound concentration 1000.0 nM
[26] = biological target: Protein kinase C iota type (Homo sapiens) (UniProt P41743); details: Compound concentration 1000.0 nM
[27] = biological target: AP2-associated protein kinase 1 (Homo sapiens) (UniProt Q2M2I8); details: Compound concentration 1000.0 nM
[28] = biological target: 5-hydroxytryptamine receptor 1B (Homo sapiens) (UniProt P28222); details: Compound concentration 10.0 uM
[29] = biological target: Dual specificity tyrosine-phosphorylation-regulated kinase 1B (Homo sapiens) (UniProt Q9Y463); details: Compound concentration 1000.0 nM
[30] = biological target: Serine/threonine-protein kinase 4 (Homo sapiens) (UniProt Q13043); details: Compound concentration 1000.0 nM
[31] = biological target: Mast/stem cell growth factor receptor Kit (Homo sapiens) (UniProt P10721); details: Compound concentration 1000.0 nM
[32] = biological target: Protein kinase C eta type (Homo sapiens) (UniProt P24723); details: Compound concentration 1000.0 nM
[33] = biological target: Cyclin-dependent kinase 19 (Homo sapiens) (UniProt Q9BWU1); details: Compound concentration 1000.0 nM
[34] = biological target: Phosphatidylinositol 3-kinase C2 domain-containing subunit gamma (Homo sapiens) (UniProt O75747); details: Compound concentration 1000.0 nM
[35] = biological target: Serine/threonine-protein kinase Chk2 (Homo sapiens) (UniProt O96017); details: Compound concentration 1000.0 nM
[36] = biological target: Tyrosine-protein kinase Fgr (Homo sapiens) (UniProt P09769); details: Compound concentration 1000.0 nM
[37] = test system: Mast/stem cell growth factor receptor Kit (Homo sapiens), P10721 [D816V]; details: Compound concentration 1000.0 nM
[38] = biological target: MAP kinase-interacting serine/threonine-protein kinase 1 (Homo sapiens) (UniProt Q9BUB5); details: Compound concentration 1000.0 nM
[39] = biological target: Casein kinase I isoform gamma-2 (Homo sapiens) (UniProt P78368); details: Compound concentration 1000.0 nM
[40] = test system: Proto-oncogene tyrosine-protein kinase receptor Ret (Homo sapiens), P07949 [V804M]; details: Compound concentration 1000.0 nM
[41] = biological target: Myosin light chain kinase family member 4 (Homo sapiens) (UniProt Q86YV6); details: Compound concentration 1000.0 nM
[42] = biological target: cGMP-dependent protein kinase 1 (Homo sapiens) (UniProt Q13976); details: Compound concentration 1000.0 nM
[43] = biological target: Serine/threonine-protein kinase pim-1 (Homo sapiens) (UniProt P11309); details: Compound concentration 1000.0 nM
[44] = biological target: Testis-specific serine/threonine-protein kinase 1 (Homo sapiens) (UniProt Q9BXA7); details: Compound concentration 1000.0 nM
[45] = biological target: Serine/threonine-protein kinase MAK (Homo sapiens) (UniProt P20794); details: Compound concentration 1000.0 nM

Chain of Serine/threonine-protein kinase Chk2 (Homo sapiens) (O96017 whole entry): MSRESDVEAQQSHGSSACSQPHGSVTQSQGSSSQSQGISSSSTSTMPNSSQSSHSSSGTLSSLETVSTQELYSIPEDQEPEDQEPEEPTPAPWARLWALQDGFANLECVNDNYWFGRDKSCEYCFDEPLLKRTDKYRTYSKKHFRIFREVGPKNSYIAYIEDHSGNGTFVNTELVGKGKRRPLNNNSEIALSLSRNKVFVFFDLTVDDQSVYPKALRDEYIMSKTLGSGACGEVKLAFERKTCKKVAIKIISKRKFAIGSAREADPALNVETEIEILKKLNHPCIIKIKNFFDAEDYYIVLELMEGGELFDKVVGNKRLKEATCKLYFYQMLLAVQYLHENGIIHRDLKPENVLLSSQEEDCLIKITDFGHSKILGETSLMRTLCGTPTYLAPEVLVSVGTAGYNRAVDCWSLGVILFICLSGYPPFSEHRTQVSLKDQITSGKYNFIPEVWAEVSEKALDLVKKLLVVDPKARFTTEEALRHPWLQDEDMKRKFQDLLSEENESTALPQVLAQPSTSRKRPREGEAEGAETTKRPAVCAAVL
Chain of Mast/stem cell growth factor receptor Kit (Homo sapiens), P10721 [V559D] (P10721 whole entry V559D): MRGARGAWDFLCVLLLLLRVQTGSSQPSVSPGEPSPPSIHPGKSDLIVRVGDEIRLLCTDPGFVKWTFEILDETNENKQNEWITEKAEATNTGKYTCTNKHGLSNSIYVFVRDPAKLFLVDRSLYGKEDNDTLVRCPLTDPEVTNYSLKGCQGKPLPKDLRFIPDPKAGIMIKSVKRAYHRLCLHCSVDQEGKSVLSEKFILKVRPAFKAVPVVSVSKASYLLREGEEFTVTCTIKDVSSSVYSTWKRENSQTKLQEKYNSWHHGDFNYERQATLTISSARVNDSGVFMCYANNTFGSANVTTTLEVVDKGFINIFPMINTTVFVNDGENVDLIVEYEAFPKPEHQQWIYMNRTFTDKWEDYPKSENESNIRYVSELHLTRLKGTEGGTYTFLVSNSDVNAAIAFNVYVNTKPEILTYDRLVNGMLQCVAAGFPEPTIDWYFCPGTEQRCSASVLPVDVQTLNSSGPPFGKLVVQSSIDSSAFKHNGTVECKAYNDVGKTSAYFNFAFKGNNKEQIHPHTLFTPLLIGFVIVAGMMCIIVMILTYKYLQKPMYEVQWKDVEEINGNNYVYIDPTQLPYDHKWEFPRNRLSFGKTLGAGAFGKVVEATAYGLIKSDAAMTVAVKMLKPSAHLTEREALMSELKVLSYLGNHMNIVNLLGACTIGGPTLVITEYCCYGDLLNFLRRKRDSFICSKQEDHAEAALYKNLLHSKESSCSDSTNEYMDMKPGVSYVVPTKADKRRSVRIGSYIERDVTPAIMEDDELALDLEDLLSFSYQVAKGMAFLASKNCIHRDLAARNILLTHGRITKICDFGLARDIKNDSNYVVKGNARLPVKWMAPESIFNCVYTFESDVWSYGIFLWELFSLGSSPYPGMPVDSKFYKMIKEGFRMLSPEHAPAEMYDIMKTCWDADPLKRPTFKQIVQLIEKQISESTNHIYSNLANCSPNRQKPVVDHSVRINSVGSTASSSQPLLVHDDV
Chain of Serine/threonine-protein kinase Nek9 (Homo sapiens) (Q8TD19 whole entry): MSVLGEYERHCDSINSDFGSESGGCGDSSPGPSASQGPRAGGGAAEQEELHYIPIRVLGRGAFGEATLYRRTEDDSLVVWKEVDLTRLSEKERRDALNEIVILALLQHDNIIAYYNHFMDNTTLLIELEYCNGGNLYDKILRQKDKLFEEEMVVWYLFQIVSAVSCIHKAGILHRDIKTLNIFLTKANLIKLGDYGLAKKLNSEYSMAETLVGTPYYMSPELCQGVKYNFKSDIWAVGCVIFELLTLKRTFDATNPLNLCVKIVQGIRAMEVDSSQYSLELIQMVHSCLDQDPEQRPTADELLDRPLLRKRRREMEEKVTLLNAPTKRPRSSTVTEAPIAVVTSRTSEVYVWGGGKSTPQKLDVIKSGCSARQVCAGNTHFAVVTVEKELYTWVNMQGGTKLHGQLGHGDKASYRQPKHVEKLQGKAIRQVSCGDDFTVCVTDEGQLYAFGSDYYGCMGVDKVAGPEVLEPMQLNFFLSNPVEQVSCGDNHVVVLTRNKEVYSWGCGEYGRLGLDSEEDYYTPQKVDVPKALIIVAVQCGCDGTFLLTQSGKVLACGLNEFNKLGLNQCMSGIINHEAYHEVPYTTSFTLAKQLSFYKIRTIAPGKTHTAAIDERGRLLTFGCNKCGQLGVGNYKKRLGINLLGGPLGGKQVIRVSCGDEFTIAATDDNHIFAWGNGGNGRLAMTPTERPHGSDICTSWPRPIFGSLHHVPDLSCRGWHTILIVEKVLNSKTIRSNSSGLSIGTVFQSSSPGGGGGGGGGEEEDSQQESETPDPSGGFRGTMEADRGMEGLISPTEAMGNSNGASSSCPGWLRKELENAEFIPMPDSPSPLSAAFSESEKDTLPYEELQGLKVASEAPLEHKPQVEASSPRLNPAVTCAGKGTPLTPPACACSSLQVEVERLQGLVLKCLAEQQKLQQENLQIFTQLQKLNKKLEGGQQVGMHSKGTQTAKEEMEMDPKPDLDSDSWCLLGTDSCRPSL
Chain of Tyrosine-protein kinase Lyn (Homo sapiens) (P07948 2-512 limits assumed): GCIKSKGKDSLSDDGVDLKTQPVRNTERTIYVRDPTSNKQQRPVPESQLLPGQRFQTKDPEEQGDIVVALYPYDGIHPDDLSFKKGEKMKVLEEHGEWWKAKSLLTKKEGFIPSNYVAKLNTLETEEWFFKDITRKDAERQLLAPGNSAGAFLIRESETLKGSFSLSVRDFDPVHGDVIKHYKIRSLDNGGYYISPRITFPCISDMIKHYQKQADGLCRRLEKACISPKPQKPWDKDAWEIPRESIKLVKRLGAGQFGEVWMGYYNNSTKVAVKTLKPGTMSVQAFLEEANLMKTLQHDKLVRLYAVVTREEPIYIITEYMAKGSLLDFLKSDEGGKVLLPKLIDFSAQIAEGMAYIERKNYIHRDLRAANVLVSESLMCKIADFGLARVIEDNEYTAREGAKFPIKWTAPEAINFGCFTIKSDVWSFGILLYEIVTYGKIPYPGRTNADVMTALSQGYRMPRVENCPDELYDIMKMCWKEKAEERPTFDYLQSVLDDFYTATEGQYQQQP
Chain of Myosin light chain kinase family member 4 (Homo sapiens) (Q86YV6 whole entry): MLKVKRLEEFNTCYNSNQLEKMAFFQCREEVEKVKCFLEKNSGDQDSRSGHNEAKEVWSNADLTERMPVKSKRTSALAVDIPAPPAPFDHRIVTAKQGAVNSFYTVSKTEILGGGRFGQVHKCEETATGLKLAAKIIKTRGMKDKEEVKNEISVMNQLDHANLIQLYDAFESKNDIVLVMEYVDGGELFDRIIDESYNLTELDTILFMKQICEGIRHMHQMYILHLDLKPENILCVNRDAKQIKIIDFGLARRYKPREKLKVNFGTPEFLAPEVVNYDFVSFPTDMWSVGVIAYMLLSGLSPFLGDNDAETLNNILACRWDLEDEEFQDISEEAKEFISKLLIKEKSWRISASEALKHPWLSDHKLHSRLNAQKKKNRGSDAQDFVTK
Chain of Mitogen-activated protein kinase 14 (Homo sapiens) (Q16539 whole entry): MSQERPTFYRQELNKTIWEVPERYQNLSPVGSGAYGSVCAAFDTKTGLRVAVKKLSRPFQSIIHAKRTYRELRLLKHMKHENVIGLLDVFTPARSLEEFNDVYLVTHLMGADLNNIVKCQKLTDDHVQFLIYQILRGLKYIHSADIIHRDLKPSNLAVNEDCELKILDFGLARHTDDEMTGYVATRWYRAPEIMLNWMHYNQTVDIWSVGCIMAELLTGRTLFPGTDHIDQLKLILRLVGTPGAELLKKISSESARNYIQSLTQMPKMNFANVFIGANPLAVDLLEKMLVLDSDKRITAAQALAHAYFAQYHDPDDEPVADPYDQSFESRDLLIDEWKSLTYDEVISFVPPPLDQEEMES
Chain of Mast/stem cell growth factor receptor Kit (Homo sapiens), P10721 [D816V] (P10721 whole entry D816V): as the sequence (P10721 whole entry V559D) above, with D559V, D816V counted along it
Chain of Serine/threonine-protein kinase pim-1 (Homo sapiens) (P11309 whole entry, looked up): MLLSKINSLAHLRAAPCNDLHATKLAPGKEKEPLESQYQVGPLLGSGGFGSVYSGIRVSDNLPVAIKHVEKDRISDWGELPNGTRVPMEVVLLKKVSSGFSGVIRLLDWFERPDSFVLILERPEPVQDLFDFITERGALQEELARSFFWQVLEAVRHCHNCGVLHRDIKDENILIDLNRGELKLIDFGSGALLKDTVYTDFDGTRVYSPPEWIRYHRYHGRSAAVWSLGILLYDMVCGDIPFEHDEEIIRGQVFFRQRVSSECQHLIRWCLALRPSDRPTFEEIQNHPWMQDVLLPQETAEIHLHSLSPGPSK

Compound `CN([C@@H]1CCc2c(CC(=O)O)c3ccccc3n2C1)S(=O)(=O)c1ccc(F)cc1` [MK-7246] has a residual activity [1] of 100%, a residual activity [2] of 100% and a residual activity [3] of 98%. The inhibition [4] was 2.42%, the residual activity [5] was 74% and the residual activity [6] was 100%. The residual activity [7] was 100%, the residual activity [8] was 100% and the residual activity [9] was 100%. The residual activity [10] was 100%, the residual activity [11] was 100% and the residual activity [12] was 100%. The residual activity [13] was 100%, the residual activity [14] was 98% and the residual activity [15] was 100%. For the same compound, the residual activity [16] was 100%, the residual activity [17] was 100% and the residual activity [18] was 100%. For the same compound, the residual activity [19] was 100%, the residual activity [20] was 100% and the residual activity [21] was 100%. It also gave a residual activity [22] of 100%, a residual activity [23] of 100% and a residual activity [24] of 100%. It also gave a residual activity [25] of 100%, a residual activity [26] of 100% and a residual activity [27] of 100%. For the same compound, the inhibition [28] was 35.6%, the residual activity [29] was 44% and the residual activity [30] was 98%. For the same compound, the residual activity [31] was 96%, the residual activity [32] was 100% and the residual activity [33] was 94%. It also gave a residual activity [34] of 95%, a residual activity [35] of 100% and a residual activity [36] of 93%. The residual activity [37] was 100%, the residual activity [38] was 93% and the residual activity [39] was 100%. It also gave a residual activity [40] of 98%, a residual activity [41] of 100% and a residual activity [42] of 100%. It also gave a residual activity [43] of 96%, a residual activity [44] of 100% and a residual activity [45] of 82%.

With `CN([C@@H]1CCc2c(CC(=O)O)c3cc(S(C)(=O)=O)ccc3n2C1)S(=O)(=O)c1ccc(F)cc1` the residual activity [1] was 100%, the residual activity [2] was 81% and the residual activity [3] was 100%. The inhibition [4] was -1.48%, the residual activity [5] was 93% and the residual activity [6] was 100%. The residual activity [7] was 100%, the residual activity [8] was 100% and the residual activity [9] was 78%. The residual activity [10] was 100%, the residual activity [11] was 100% and the residual activity [12] was 88%. The residual activity [13] was 77%, the residual activity [14] was 93% and the residual activity [15] was 100%. The residual activity [16] was 92%, the residual activity [17] was 100% and the residual activity [18] was 100%. It also gave a residual activity [19] of 100%, a residual activity [20] of 100% and a residual activity [21] of 100%. It also gave a residual activity [22] of 100%, a residual activity [23] of 100% and a residual activity [24] of 80%. The residual activity [25] was 100%, the residual activity [26] was 100% and the residual activity [27] was 100%. For the same compound, the inhibition [28] was 2.6%, the residual activity [29] was 36% and the residual activity [30] was 97%. The residual activity [31] was 89%, the residual activity [32] was 100% and the residual activity [33] was 100%. For the same compound, the residual activity [34] was 82%, the residual activity [35] was 100% and the residual activity [36] was 84%. It also gave a residual activity [37] of 95%, a residual activity [38] of 86% and a residual activity [39] of 100%. The residual activity [40] was 100%, the residual activity [41] was 100% and the residual activity [42] was 95%. It also gave a residual activity [43] of 100%, a residual activity [44] of 100% and a residual activity [45] of 65%.
